These are literature values, as cited in patent publication US11666537B2, “Solid oral dosage form of irinotecan for the treatment of cancer” (Oncoral Pharma ApS, priority 2014, dated 2023).

The subject of this data set is tumor cells. Particulars: human and rodent tumor cell lines.

Molecules are shown by their SMILES.

As for `CCc1c2c(nc3ccc(O)cc13)-c1cc3c(c(=O)n1C2)COC(=O)[C@]3(O)CC` [SN-38], the “times more cytotoxic than irinotecan” value is on record as 100-1000 times.
